For 29 compounds, IC50 results are on record in US7754200B2, “Phosphate transport inhibitors” (Genzyme Corporation, priority 2002, dated 2010).

Structures are written as SMILES.

In this assay the test system is phosphate uptake by rabbit intestinal Brush Border Membrane Vesicles (BBMV). As to the kind of experiment: 33PO4 Uptake in Rabbit Intestinal BBMV High Throughput Screening (HTS) assay. Format: biochemical. The note with it: inhibition of 33PO4 uptake, 15 minutes. The text has this: The activity of compounds of the present invention can be assessed using suitable assays, such as the ^33PO4 Uptake In Rabbit Intestinal BBMV High Throughput Screening (HTS) assay, as described in the Example 28. Compounds of the present invention can also be identified by virtue of their ability to inhibit the absorption of phosphate in vivo, for example, in the gastrointestinal tract of a laboratory animal.
The following example outlines the procedures required for in vitro measurement of the inhibition of phosphate uptake by rabbit intestinal Brush Border Membrane Vesicles (BBMV).
Rabbit Intestinal Brush Border Membrane Vesicles (BBMV) were isolated from mucosal scrapings of the upper small intestine (duodenum) of male New Zealand White rabbits. The scrapings were divided into 2 g aliquots in cryopreservation vials, frozen in liquid nitrogen, and stored at −80° C.
The following procedure was performed for each 2 g sample of BBMV mucosal scraping. Buffer volumes and container sizes were adjusted appropriately for the number of 2 g samples used. The entire preparation was performed on ice, unless otherwise stated.
Mucosal scrapings (2 g per tube) were thawed in a 37° C. water bath for 3 minutes and then placed on ice. The scrapings were suspended with a total of 7.5 mL of 300 MET, and transferred to a 250 mL Coming tube on ice. To the suspension was added 30 mL cold (4° C.) deionized water (dH2O). The suspension was homogenized with a tissue homogenizer (Polytron) on high speed for two minutes. A stir bar and MgCl2 (81.3 mg) were added. The suspension was mixed well by inverting the closed tube. The suspension was stirred on ice, ensuring that a good vortex is achieved with the stir bar, for 40 minutes. The suspension was transferred to a chilled centrifuge tube and spun at 4000×g for 15 minutes. The supernatant was transferred to a new chilled centrifuge tube and spun at 32000×g for 30 minutes. The supernatant was discarded and the pellet was re-suspended with 34 mL cold 60 MET. The suspension was homogenized with a Dounce homogenizer with 8 strokes. The suspension was transferred to a fresh 250 mL Coming tube. A stir bar and 69.1 mg MgCl2 were added. The suspension was stirred well on ice for 10 minutes. The suspension was transferred to a chilled centrifuge tube and spun at 4000×g for 15 minutes. The supernatant was transferred to a new chilled centrifuge tube and spun at 32000×g for 30 minutes. The supernatant was discarded. At this stage, the preparation could be continued or this pellet (P4) could be frozen in liquid nitrogen and stored at −80° C. When needed, this pellet could be allowed to thaw at room temperature for 5 minutes. Continuing the preparation, the pellet was re-suspended with 34 mL cold 280 MH. The suspension was homogenized in a Dounce homogenize with 8 strokes. The suspension was transferred to a new chilled centrifuge tube and spun at 32000×g for 30 minutes. The supernatant was discarded. To the pellet was added 500 μL 280 MH and the pellet was re-suspended very carefully with a 1 mL tuberculin syringe with a 25-gauge needle with care not to create bubbles. Once the entire pellet was suspended, the suspension was transferred to a chilled 1.5 mL microfuge tube. The suspension was evenly dispersed by bringing the suspension up into the syringe through the 25-gauge needle, and back out again eight times with care not to create bubbles. The total protein concentration was determined by performing a Bradford Protein Assay. Using that value, the BBMV were diluted with 280 MH to reach approximately 0.5-2.0 mg/mL. The solution was used as soon as possible for uptake studies.
^33PO4 Uptake in Rabbit Intestinal BBMV
The following experiment was performed using a Beckman Multimek 96-tip robotic pipettor. The following outlines the preparation required to screen one 96-well plate of compounds. However, multiple plates could be screened in one experiment. […]
Consider `CCCCCCCCCCP(=O)(O)CP(=O)(O)O` [Compound 1], for which the half-inhibitory concentration (IC50) (commonly the concentration that inhibits the measured activity by half) is under 100 µM.

With `C=CCCCCCCCCCP(=O)(O)C(F)(F)P(=O)(O)O` [Compound 2], the IC50 was under 100 µM.

Consider `C=CCCCCCCCCCP(=O)(O)C(F)P(=O)(O)O` (centres unmarked) [Compound 3], for which the IC50 was under 100 µM.

The compound `C=CCCCCCCCCCP(=O)(O)CP(=O)(O)O` [Compound 4] returned an IC50 of under 100 µM.

Turning to `O=P(O)(O)CP(=O)(O)c1ccc(C(F)(F)F)cc1` [Compound 5], the IC50 is under 100 µM.

As to `O=P(O)(O)CP(=O)(O)CCCCCCCCCC(Br)CBr` (centres unmarked) [Compound 6], the IC50 was under 100 µM.

`O=C1c2ccccc2C(=O)N1CCCCCCCCCCCP(=O)(O)CP(=O)(O)O` [Compound 8]: the IC50 was under 100 µM.

`O=C(NCCCCCCCCCCCP(=O)(O)CP(=O)(O)O)c1ccc(OC(F)(F)F)cc1` [Compound 10]: the 50% inhibitory concentration (IC50) was 100 to 300 µM.

Turning to `C=CCCC(CCCCCCCCCC)P(=O)(O)CP(=O)(O)O` (centres unmarked) [Compound 11], the IC50 fell in the range of 100 to 300 µM.

`O=P(O)(O)CP(=O)(O)CCCCCCCCCCCNS(=O)(=O)c1ccc(OC(F)(F)F)cc1` [Compound 14]: the IC50 was in the range of 100 to 300 µM.

In the case of `C=CCCCCCCCCCP(=O)(O)CP(=O)(O)CP(=O)(O)O` [Compound 16], the IC50 lay in the range of 100 to 300 µM.

As to `C=CCCCP(=O)(O)C(CCCCCCCCCC)P(=O)(O)O` (centres unmarked) [Compound 17], the IC50 was 300 to 700 µM.

Turning to `CCCCCCCCCC(CCCCCN)P(=O)(O)CP(=O)(O)O` (centres unmarked) [Compound 18], the IC50 lay within 300 to 700 µM.

With `O=P(O)(O)CP(=O)(O)CCCC1CCCCC1` [Compound 19], the IC50 lay in the range of 300 to 700 µM.

`C=CCCCCCCCCCP(=O)(O)C(CCCCC)P(=O)(O)O` (centres unmarked) [Compound 21]: the IC50 fell in the range of 700 to 1000 µM.

Consider `O=P(O)(O)CP(=O)(O)CCCCCCCCCC1CO1` (centres unmarked) [Compound 22], for which the IC50 fell in the range of 700 to 1000 µM.

As for `C=CCCCCCCCCCP(=O)(O)C(CCCCC)P(=O)(O)O` (centres unmarked) [Compound 23], the IC50 lay within 700 to 1000 µM.

As to `CCC(=O)NCCCCCCCCCCCP(=O)(O)CP(=O)(O)O` [Compound 24], the concentration for half-maximal inhibition (IC50) lay in the range of 700 to 1000 µM.

Consider `O=P(O)(O)CP(=O)(O)CCCCCCCCCCCO` [Compound 25], for which the IC50 lay in the range of 700 to 1000 µM.

`CCCCCCCCCCC(P(C)(=O)O)P(=O)(O)O` (centres unmarked) [Compound 26] yielded an IC50 of 700 to 1000 µM.

`NCCCCCCCCCCCP(=O)(O)CP(=O)(O)O` [Compound 27]: the IC50 lay in the range of 1000 to 1600 µM.

With `CCCCCCCCCC(CCCCCNC(=O)CC)P(=O)(O)CP(=O)(O)O` (centres unmarked) [Compound 28], the IC50 was in the range of 1000 to 1600 µM.

`O=P(O)(O)CP(=O)(O)CCCCCBr` [Compound 29] displayed an IC50 of 1000 to 1600 µM.

For `O=P(O)(O)CP(=O)(O)C/C=C/c1ccccc1` [Compound 30], the IC50 is 1000 to 1600 µM.

`C=CCCCP(=O)(O)C(Cc1ccc(-c2ccccc2)cc1)P(=O)(O)O` (centres unmarked) [Compound 32] had an IC50 of 1000 to 1600 µM.

`O=P(O)(O)CP(=O)(O)C1CCCCC1` [Compound 33]: the IC50 was over 1600 µM.

The compound `C=CCCCP(=O)(O)CP(=O)(O)O` [Compound 34] showed an IC50 of over 1600 µM.

Turning to `C=CC(=O)NCCCCCCCCCCCP(=O)(O)CP(=O)(O)O` [Compound 35], the IC50 was over 1600 µM.

For the compound `C=CCCCP(=O)(O)C(CCCC1CCCCC1)P(=O)(O)O` (centres unmarked) [Compound 36], the IC50 was over 1600 µM.
